Where two headings read alike, the source gives them in different places.
What was measured:
[1] = target: T1, CDK6/CyclinD3 (Homo sapiens, UniProt Q00534); assay: Assay for inhibition of CDK6/CyclinD3 (Caliper microfluidic kinase assay); assay type: biochemical
T1 construct: purchased Carna 04-107
Procedure: The CDK6 enzyme assay for IC50 determination was performed as follows. Microfluidic kinase detection technology (Caliper) was used to monitor the phosphorylation of peptide substrate by CDK6/CyclinD3. The total reaction volume is 15 μL containing buffer A (100 mM HEPES (pH 7.5), 0.1% BSA, 0.01% Triton X-100, 1 mM DTT, 10 mM MgCl2, 10 μM Sodium Orthovanadate, 10 μM Beta-Glycerophosphate), 300 μM ATP, 2 nM CDK6/CyclinD3 (Carna, 04-107), 1 μM FL-34 (5-FAM-[…]), and the test compound at appropriate dilutions in DMSO. All components were added to the 384-well plate (Corning, 4514), and incubated at Room Temperature for 3 hours. The reaction was terminated by addition of 15 μL Stop Buffer (180 mM HEPES (pH 7.5), 20 mM EDTA, Coating-3 reagent (PerkinElmer, 760050)). The plate was then loaded on Caliper EZ Reader (EZ Reader II, PerkinElmer, HD-4HYSG2772), and the reaction mixtures including substrate and product were sipped into the microfluidic chip for separation and detection. The IC50 values of the test compound were determined by fitting the inhibition curves by 4 parameter sigmoidal dose-response model using the Xlfit5/GraphPad Prism 5 software.

[2] = target: T2, CDK2/CyclinE1 (Homo sapiens, UniProt P24941); assay: Assay for inhibition of CDK2/CyclinE1 (Caliper microfluidic kinase assay); assay type: biochemical; settings: read-out: CDK2 IC50
T2 construct: purchased SignalChem C29-18G
Outline: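 Caliper microfluidic mobility-shift assay: 5 nM CDK2/CyclinE1, 100 μM ATP, 5 μM FL-18 peptide (5-FAM-QSPKKG-NH2) in pH 7.5 HEPES buffer with MgCl2, DTT, BSA, Triton X-100. Incubated 3 hours at room temperature, EDTA-stopped; IC50 from 4-parameter sigmoidal fit.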

[3] = test system: T47D breast cancer cells; assay: Anti-proliferation assay in T47D cell (Cyquant, day 6); assay type: cell-based, human; settings: read-out: T47D IC50
Outline: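 Cells were grown in RPMI 1640 with 10% FBS at 37 °C and dosed the day after plating at ten concentrations, 10 μM to 0.51 nM in 3-fold steps. CyQuant fluorescence (ex 485/em 535 nm) was read on day 6. IC50 was fitted from baseline-subtracted viability curves, with the baseline read after overnight culture.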

[4] = target: T3, CDK4/CyclinD1 (Homo sapiens, UniProt P11802); assay: Assay for inhibition of CDK4/CyclinD1 (Caliper microfluidic kinase assay); assay type: biochemical
T3 construct: purchased Thermofisher PR8064A
T3 sequence (P11802 whole entry): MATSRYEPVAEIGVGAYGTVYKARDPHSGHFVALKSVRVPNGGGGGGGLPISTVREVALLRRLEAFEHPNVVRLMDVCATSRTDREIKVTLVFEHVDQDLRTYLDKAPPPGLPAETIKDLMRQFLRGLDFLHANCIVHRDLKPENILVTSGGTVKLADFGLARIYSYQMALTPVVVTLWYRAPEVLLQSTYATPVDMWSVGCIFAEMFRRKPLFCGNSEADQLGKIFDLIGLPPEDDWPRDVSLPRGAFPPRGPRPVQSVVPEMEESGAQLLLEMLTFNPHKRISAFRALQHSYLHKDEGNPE
T3 sequence (P24385 whole entry partner): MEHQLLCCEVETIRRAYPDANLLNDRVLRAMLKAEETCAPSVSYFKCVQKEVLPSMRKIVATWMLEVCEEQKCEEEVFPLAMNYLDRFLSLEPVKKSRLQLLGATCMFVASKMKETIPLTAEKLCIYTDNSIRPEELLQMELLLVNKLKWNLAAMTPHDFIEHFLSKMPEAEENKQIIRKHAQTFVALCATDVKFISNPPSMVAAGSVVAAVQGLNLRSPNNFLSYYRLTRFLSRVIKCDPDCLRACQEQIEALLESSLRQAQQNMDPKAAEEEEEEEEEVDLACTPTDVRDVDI
Outline: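 Caliper microfluidic mobility-shift assay tracking phosphorylation of 1 μM FL-34 peptide by 1 nM CDK4/CyclinD1 with 200 μM ATP in HEPES pH 7.5 buffer with 10 mM MgCl2. Reaction ran 3 h at room temperature, was stopped with EDTA, and IC50 came from a 4-parameter sigmoidal fit.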

[5] = test system: phosphorylation of Retinoblastoma Protein (pRb Ser807/811 or Ser780) in T47D cells; assay: Inhibition of phosphorylation of retinoblastoma protein (pRb) in T47D cell (ELISA); assay type: cell-based, human
Procedure: T47D breast cancer cells from American Type Culture Collection (ATCC, HTB-133) were plated at 40,000 cells/well in 96-well plates, and were incubated in RPMI 1640 medium (Gibco, 31800105) with 10% Fetal Bovine Serum (FBS, Biowest, FB-1058). Cells were then allowed to adhere overnight at 37° C., 5% CO2. The following day, compounds were titrated in a 3-fold dilution scheme, and the highest compound concentration tested was […]. After 24 hours incubation with compounds, cells were lysed in ice-cold lysis buffer containing phosphatase inhibitor cocktail and 1 mM PMSF. Cell lysates (50 μL/well) were then transferred to ELISA plates (pRb Ser807/811 ELISA kit, Cell Signaling, 13152 or pRb Ser780 ELISA kit, Cell Signaling, 13016)). Plates were incubated overnight at 4° C., with constant slow speed shaking. After incubation, plates were washed following manufacturer's recommendations, and then 100 μL reconstituted detection antibody was added to each well and incubated for 1 hour at 37° C. After incubation, plates were washed, and then 100 μL reconstituted HRP-linked secondary antibody was added to each well and incubated for 30 mins at 37° C. After incubation, plates were washed. Then, 100 μL TMB substrate was added to each well and incubated for 10 min at 37° C. or 30 min at 25° C. Finally, 100 μL of STOP solution was added to each well and mixed gently for a few seconds. Plates were read on the Envision plate reader (PerkinElmer, 2104-0010) using the 96-well […] mode. IC50 values were calculated using 4 parameter sigmoidal dose-response model of Xlfit5/GraphPad Prism 5 software.

[6] = Homo sapiens, T47D, anti-proliferation, T47D cells
[7] = Homo sapiens, T47D, read-out: Phospho T47D Ser807 IC50, pRb Ser807 phosphorylation, T47D cells

T1 sequence (Q00534 whole entry): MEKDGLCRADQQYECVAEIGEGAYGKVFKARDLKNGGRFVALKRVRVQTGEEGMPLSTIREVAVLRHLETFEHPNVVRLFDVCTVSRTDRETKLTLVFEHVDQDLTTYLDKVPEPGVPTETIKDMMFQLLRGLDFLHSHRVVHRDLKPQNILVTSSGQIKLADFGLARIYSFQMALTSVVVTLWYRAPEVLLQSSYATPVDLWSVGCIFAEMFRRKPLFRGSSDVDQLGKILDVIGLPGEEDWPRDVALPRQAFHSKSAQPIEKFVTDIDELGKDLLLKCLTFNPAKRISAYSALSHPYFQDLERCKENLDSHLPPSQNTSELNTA
T1 sequence (P30281 whole entry partner): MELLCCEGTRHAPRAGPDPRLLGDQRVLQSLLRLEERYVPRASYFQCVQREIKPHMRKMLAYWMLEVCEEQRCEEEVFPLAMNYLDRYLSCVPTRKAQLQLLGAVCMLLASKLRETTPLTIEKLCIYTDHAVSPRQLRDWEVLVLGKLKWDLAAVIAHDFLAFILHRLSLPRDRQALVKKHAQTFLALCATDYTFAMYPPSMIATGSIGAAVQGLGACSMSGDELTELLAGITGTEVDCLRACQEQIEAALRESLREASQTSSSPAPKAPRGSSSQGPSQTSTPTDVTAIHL

Row | SMILES | IC50 ([1]; CDK6/CyclinD3, 300 μM ATP) | IC50 ([2]; CDK2/CyclinE1, 100 μM ATP) | IC50 [3, 6] | IC50 ([4]; CDK4/CyclinD1, 200 μM ATP) | IC50 [5, 7] | IC50 ([3]; anti-proliferation, T47D cells) | IC50 ([5]; read-out: Phospho T47D Ser807 IC50, pRb Ser807 phosphorylation, T47D cells) | IC50 ([3]; Homo sapiens, T47D) | IC50 ([5]; Homo sapiens, T47D, read-out: Phospho T47D Ser807 IC50) | IC50 ([1]; CDK6/CyclinD3) | IC50 ([2]; CDK2/CyclinE1) | IC50 ([4]; CDK4/CyclinD1)
1 | COc1nc(-c2nc(Nc3ccc(N4CCC(N(C)C)CC4=O)cn3)ncc2F)cc2c1nc(C)n2C(C)C (single isomer, unassigned) [Example 62-1, 4-(dimethylamino)-1-[6-[[5-fluoro-4-(1-isopropyl-4-methoxy-2-methyl-imidazo[4,5-c]pyridin-6-yl)pyrimidin-2-yl]amino]-3-pyridyl]piperidin-2-one] | 10 to 100 nM | > 1000 nM | 100 to 500 nM | < 10 nM | 100 to 500 nM | – | – | – | – | – | – | –
2 | COc1nc(-c2nc(Nc3ccc(N4CCC(N(C)C)CC4=O)cn3)ncc2F)cc2c1nc(C)n2C(C)C (single isomer, unassigned) [Example 62-2, 4-(dimethylamino)-1-[6-[[5-fluoro-4-(1-isopropyl-4-methoxy-2-methyl-imidazo[4,5-c]pyridin-6-yl)pyrimidin-2-yl]amino]-3-pyridyl]piperidin-2-one] | 10 to 100 nM | > 1000 nM | – | < 10 nM | – | < 100 nM | < 100 nM | – | – | – | – | –
3 | CNC1CCN(c2ccc(Nc3nccc(-c4ccn5ncc(C(C)C)c5c4)n3)nc2)C(=O)C1 (single isomer, unassigned) [Synthetic Example 205, 1-[6-[[4-(3-isopropylpyrazolo[1,5-a]pyridin-5-yl)pyrimidin-2-yl]amino]-3-pyridyl]-4-(methylamino)piperidin-2-one] | < 10 nM | < 10 nM | < 100 nM | < 10 nM | < 100 nM | – | – | – | – | – | – | –
4 | CC(C)c1cnn2ccc(-c3ccnc(Nc4ccc(N5CCCNC5=O)cn4)n3)cc12 [Synthetic Example 1] | 10 to 100 nM | 100 to 1000 nM | < 100 nM | < 10 nM | < 100 nM | – | – | – | – | – | – | –
5 | CC(C)c1cnn2ccc(-c3nc(Nc4ccc(N5CCNCC5=O)cn4)ncc3F)cc12 [Synthetic Example 29] | 10 to 100 nM | 10 to 100 nM | < 100 nM | < 10 nM | < 100 nM | – | – | – | – | – | – | –
6 | CC(C)c1cnn2ccc(-c3ccnc(Nc4ccc(N5CC(N(C)C)CC5=O)cn4)n3)cc12 (stereo not drawn) [Synthetic Example 39] | 10 to 100 nM | 10 to 100 nM | < 100 nM | < 10 nM | < 100 nM | – | – | – | – | – | – | –
7 | CC(C)c1cnn2ccc(-c3ccnc(Nc4ccc(N5CCN(C6CNC6)CC5=O)cn4)n3)cc12 [Synthetic Example 40] | 10 to 100 nM | 10 to 100 nM | – | < 10 nM | – | – | – | < 100 nM | < 100 nM | – | – | –
8 | CC(C)c1cnn2ccc(-c3nc(Nc4ccc(N5CCN(CCO)CCC5=O)cn4)ncc3F)cc12 [Synthetic Example 52] | 10 to 100 nM | 10 to 100 nM | – | < 10 nM | < 100 nM | – | – | – | – | – | – | –
9 | COc1nc(-c2ccnc(Nc3ccc4c(n3)CCN(C(=O)CN(C)C)C4)n2)cc2c1ncn2C(C)C [Synthetic Example 140] | 10 to 100 nM | > 1000 nM | – | < 10 nM | < 100 nM | – | – | – | – | – | – | –
10 | CCN1CCN(Cc2ccc(Nc3ncc(F)c(-c4cc(C)n5ncc(C(C)C)c5c4)n3)nc2)CC1 [compound 5] | 100 to 1000 nM | – | > 1000 nM | 10 to 100 nM | > 1000 nM | – | – | – | – | – | – | –
11 | COc1nc(-c2ccnc(Nc3ccc(N4CCC(N5CCOCC5)CC4=O)cn3)n2)cc2c1ncn2C(C)C (stereo not drawn) [compound 100] | – | – | – | – | 100 to 500 nM | – | – | – | – | 10 to 100 nM | 100 to 1000 nM | < 10 nM
12 | COc1nc(-c2ccnc(Nc3ccc(N4CCNCC4=O)cc3F)n2)cc2c1ncn2C(C)C [compound 114] | 10 to 100 nM | 10 to 100 nM | – | < 10 nM | 100 to 500 nM | – | – | – | – | – | – | –
13 | COc1nc(-c2ccnc(Nc3ccc(N4CCNCC4=O)nc3)n2)cc2c1ncn2C(C)C [compound 119] | 10 to 100 nM | 10 to 100 nM | – | < 10 nM | 100 to 500 nM | – | – | – | – | – | – | –
14 | CCN1CCN(c2ccc(Nc3nccc(-c4cc5c(ncn5C(C)C)c(OC)n4)n3)nc2)C(=O)C1 [compound 134] | 10 to 100 nM | 100 to 1000 nM | – | < 10 nM | < 100 nM | – | – | – | – | – | – | –
15 | COc1nc(-c2nc(Nc3ccc(N4CCN(C5CCOCC5)CC4=O)cn3)ncc2F)cc2c1nc(C)n2C(C)C [compound 136] | 10 to 100 nM | > 1000 nM | – | < 10 nM | 100 to 500 nM | – | – | – | – | – | – | –
16 | COc1nc(-c2ccnc(Nc3ccc(N4CCN(C5COC5)CC4=O)cn3)n2)cc2c1ncn2C(C)C [compound 137] | 10 to 100 nM | 100 to 1000 nM | – | < 10 nM | < 100 nM | – | – | – | – | – | – | –
17 | CC(C)c1cnn2ccc(-c3ccnc(Nc4ccc(C(=O)N5CCC5)cc4)n3)cc12 [compound 169] | 10 to 100 nM | < 10 nM | – | < 10 nM | < 100 nM | – | – | – | – | – | – | –
18 | CC(C)(C)c1cnn2ccc(-c3ccnc(Nc4ccc(N5CCCC(N)C5=O)cc4)n3)cc12 (stereo not drawn) [compound 218] | < 10 nM | < 10 nM | – | < 10 nM | < 100 nM | – | – | – | – | – | – | –
19 | CCN1CCN(c2ccc(Nc3nccc(N4CCc5ncn(C(C)C)c5C4)n3)nc2)C(=O)C1 [compound 241] | – | 100 to 1000 nM | 100 to 500 nM | 10 to 100 nM | < 100 nM | – | – | – | – | – | – | –
20 | CC(C)n1cnc2c1CN(c1ccnc(Nc3ccc(N4CCC(N5CC(F)C5)CC4=O)cn3)n1)CC2 (stereo not drawn) [compound 243] | – | 10 to 100 nM | 500 to 1000 nM | 10 to 100 nM | 100 to 500 nM | – | – | – | – | – | – | –
21 | CN(C)C1CCCN(c2ccc(Nc3nccc(-c4cc(F)c5c(c4)C(C)(C)CO5)n3)nc2)C1=O (stereo not drawn) [compound 261] | 10 to 100 nM | > 1000 nM | – | < 10 nM | < 100 nM | – | – | – | – | – | – | –
22 | CC1(C)COc2c(F)cc(-c3ccnc(Nc4ccc(N5CCCNC5=O)cn4)n3)cc21 [compound 262] | – | 100 to 1000 nM | < 100 nM | < 10 nM | < 100 nM | – | – | – | – | – | – | –
23 | CC(C)n1cnc2c(F)nc(-c3ccnc(Nc4ccc(N5CCC(C)(N)CC5=O)cn4)n3)cc21 (stereo not drawn) [compound 271] | < 10 nM | 10 to 100 nM | – | < 10 nM | < 100 nM | – | – | – | – | – | – | –
24 | CC(C)n1cnc2c(F)nc(-c3ccnc(Nc4ccc(N5CCCNC5=O)cn4)n3)cc21 [compound 275] | < 10 nM | 100 to 1000 nM | – | < 10 nM | < 100 nM | – | – | – | – | – | – | –
25 | CCN1CCN(c2ccc(Nc3nccc(-c4cc5c(ncn5C(C)C)c(F)n4)n3)nc2)CC1 [compound 289] | < 10 nM | 100 to 1000 nM | – | < 10 nM | < 100 nM | – | – | – | – | – | – | –
26 | COc1nc(-c2ccnc(Nc3ccc(N4CCC(C)(N)CC4=O)cn3)n2)cc2c1ncn2C(C)C (stereo not drawn) [compound 313] | – | – | – | – | < 100 nM | – | – | – | – | < 10 nM | 100 to 1000 nM | 10 to 100 nM

— patent US20220296595A1, “CDK INHIBITORS” (QILU REGOR THERAPEUTICS INC., priority 2019, published 2022)
